Reference: patent US7575882B2, “Compositions and methods for identifying modulators of TRPV2” (Janssen Pharmaceutica N. V., priority 2005, dated 2009)

Key:
Type in all cases: cell-based
human TRPV1 = molecular target: T1, human TRPV1 (Homo sapiens, UniProt Q8NER1); assay: FLIPR assay in HEK293 cells expressing human TRPV1; settings: Δ^9-THC 240 μM, cannabinol 600 μM, others 120 μM
T1 construct: expressed in transfected cells; host or cells: HEK293
Procedure: A selected number of cannabinoids were also tested against HEK293 cells expressing human TRPV1 and canine TRPM8 in the FLIRP assay.

[1] = system: deletion mutants of rat TRPV2; assay: Calcium mobilization in HEK293 cells expressing rat TRPV2 deletion mutants; settings: mutants lacking N-terminal 20, 32/33, 65/66 or C-terminal 11, 23, 32 residues
Text: DNA molecules encoding the deletion mutants were amplified by PCR using the rat TRPV2 cDNA as the template. For amino-terminal deletions, a series N-terminal forward primers encoding an initiating methionine in frame with sequences matching adjacent regions of the desired start at residues G21 (mutant N20, SEQ ID NO:11), P33 (N32, SEQ ID NO:12), A66 (N65, SEQ ID NO:13) and V84 (N83, SEQ ID NO:14) paired with a C-terminal reverse primer were used for PCR amplification. While for carboxyl-terminal deletions, a forward N-terminal primer paired with a series C-terminal reverse primers ending at residues R706 (C51, SEQ ID NO:7), P729 (C32, SEQ ID NO:8), P738 (C23, SEQ ID NO:9) and E750 (C11, SEQ ID NO:10) with an in-frame stop codon at the terminal end of the open reading frame were used for amplification. After PCR amplification and purification, the DNA molecules encoding the deletion mutants were subcloned into the pCI-neo mammalian expression vector and the constructs were confirmed by DNA sequencing. […]
The deletion mutant constructs were then transfected into HEK293 cells using Fugene 6 reagent (Roche) as per the manufacturer's instructions. […] Calcium mobilization was triggered using Δ^9-THC or 2-APB or elevated temperature buffer and measured using either FLIPR or FLEX STATION instruments.

[2] = molecular target: T2, rat and human TRPV2 chimera RHR (Rattus norvegicus, UniProt Q9WUD2, A398L/D418K/D570G/D595E/E431N/E493A/E569T/E577V/E585D/F395L/F429V/I422A/INS586GN/K566E/L151P/L436T/L450V/L461V/L478F/L485V/L503S/M468I/M492L/N571P/P420Q/P587G/P589Q/Q419K/R460H/R490C/R560Q/R563W/R617H/S416T/S424H/S425L/S504A/S564R/S573A/S592G/T428E/T494I/T576S/T580M/V402I/V409A/V543I/V575E/V581E/V621M/V635I/Y400N); assay: Calcium mobilization in HEK293 cells expressing TRPV2 chimera RHR; settings: transient expression in HEK293
T2 construct: expressed in transfected cells; host or cells: HEK293, transient, pCI-neo
Procedure: The deletion mutant constructs were then transfected into HEK293 cells using Fugene 6 reagent (Roche) as per the manufacturer's instructions. At 24 hours post-transfection, the cells were harvested and replated in fresh DMEM medium supplemented with 10% fetal bovine serum, 100 units/ml penicillin, and 100 μg/ml streptomycin. The cells were distributed onto poly-D-Lysine coated 96-or 384-well plates at a density of approximately 40,000 and 10,000 cells per well, respectively. At approximately 48 hours post-transfection, the medium was removed from the assay plate and replaced with Calcium 3 Dye Buffer (Molecular Devices) using the protocol available from the manufacturer. Calcium mobilization was triggered using Δ^9-THC or 2-APB or elevated temperature buffer and measured using either FLIPR or FLEX STATION instruments.
Based on the predicted topology and primary sequence features of TRPV2, TRPV2 are divided into 3 major domains: 1) the amino-terminal intracellular domain; 2) the transmembrane domain; and 3) the carboxyl-terminal intracellular domain. For a chimera, each domain can be of rat (R) or human (H) origin. Three rat and human TRPV2 chimera were constructed and tested herein. RRH (SEQ ID NO:15) was a chimera comprising rat 1-392 aa, rat 393-646 aa, and human 647-764 aa. RHR (SEQ ID NO:16) was a chimera comprising rat 1-392, human 391-646, and rat 647-761. HRR (SEQ ID NO:17) was a chimera comprising human 1-390, rat 393-646, and rat 647-761.
DNA molecules encoding the three rat and human TRPV2 chimeras were obtained by fusion PCR. First, DNA molecules encoding the desired TRPV2 domains were amplified by PCR using the rat or human TRPV2 cDNA as the template with synthetic primer DNA containing in-frame sequence that overlapped with the other species domain to be linked. After PCR amplification and purification, DNA molecules encoding the desired TRPV2 domains from human and rat were combined and used as templates for fusion PCR with primer DNA matching the 5′ and 3′ end sequences of the coding sequence for the full length TRPV2 chimera. […]

## Delta-9-tetrahydrocannabinol [Δ^9-THC]
Human TRPV1
  activation of TRPV1: no significant activation
[1]
  response of rat TRPV2 deletion mutants to the compound: still active
[2]
  response of chimera RHR to the compound: fully responsive
[2]; listed as Δ9-THC
  response of chimera RHR to the compound: active
